Experimental data from PMC10897196, “Structure–activity characteristics of phenylalanine analogs selectively transported by L-type amino acid transporter 1 (LAT1)” (Scientific Reports, 2024).
Like-named read-outs stand apart in the source and are kept apart here.

What was measured:
Format in all cases: cell-based
[1] = target: T1, human LAT1 (Homo sapiens, UniProt Q01650); assay: Inhibition of L-[14C]leucine uptake in HEK293-hLAT1 cells; conditions: for Ki: L-[14C]leucine uptake
T1 construct: expressed in transfected cells
Source text: (§1) In this study, we used the HEK293 cells stably expressing human LAT1 or human LAT2, which form a heterodimeric complex with endogenous 4F2hc (CD98hc), required for plasma membrane localization. We first explored the impact of halogen group positioning in the benzene ring of Phe (Fig. 1) on its interaction with LAT1 and LAT2. […] We conducted inhibition experiments to measure the uptake of L-[^14C]leucine by LAT1 and L-[^14C]alanine by LAT2 in the presence or absence of Phe derivatives with an iodo group at position 2, 3, or 4 in the benzene ring.
(§2) The inhibition experiments were performed as described previously. HEK293-hLAT1 (1.5 × 10^5 cells/well) or HEK293-hLAT2 (2 × 10^5 cells/well) cells were plated onto poly-D-lysine-coated 24-well plates (Corning, New York, USA). Following a 2-day culture period, the uptake of 1 μM L-[^14C]leucine or L-[^14C]alanine was measured for 1 min in the absence or presence of non-radiolabeled test compounds at concentrations of 10, 30, and 100 μM. Radioactivity was quantified using a β-scintillation counter (LSC-3100; Aloka, Tokyo, Japan), and protein concentrations were determined with a Micro BCA Protein Assay Kit (Thermo Fisher Scientific, Rockford, IL). To calculate Ki values, the concentration-dependent uptake of L-[^14C]leucine or L-[^14C]alanine was analyzed in the presence and absence of test compounds[49]. The data were plotted against substrate concentration and fitted to Michaelis–Menten kinetics. Ki values were derived using nonlinear regression analysis with the enzyme kinetics inhibition module in GraphPad Prism software (Version 10.0.2; GraphPad Software Inc., San Diego, CA, USA).

[2] = target: T2, human LAT2 (Homo sapiens, UniProt Q9UHI5); assay: Inhibition of L-[14C]alanine uptake in HEK293-hLAT2 cells
T2 construct: expressed in transfected cells
T2 sequence (Q9UHI5 1-535): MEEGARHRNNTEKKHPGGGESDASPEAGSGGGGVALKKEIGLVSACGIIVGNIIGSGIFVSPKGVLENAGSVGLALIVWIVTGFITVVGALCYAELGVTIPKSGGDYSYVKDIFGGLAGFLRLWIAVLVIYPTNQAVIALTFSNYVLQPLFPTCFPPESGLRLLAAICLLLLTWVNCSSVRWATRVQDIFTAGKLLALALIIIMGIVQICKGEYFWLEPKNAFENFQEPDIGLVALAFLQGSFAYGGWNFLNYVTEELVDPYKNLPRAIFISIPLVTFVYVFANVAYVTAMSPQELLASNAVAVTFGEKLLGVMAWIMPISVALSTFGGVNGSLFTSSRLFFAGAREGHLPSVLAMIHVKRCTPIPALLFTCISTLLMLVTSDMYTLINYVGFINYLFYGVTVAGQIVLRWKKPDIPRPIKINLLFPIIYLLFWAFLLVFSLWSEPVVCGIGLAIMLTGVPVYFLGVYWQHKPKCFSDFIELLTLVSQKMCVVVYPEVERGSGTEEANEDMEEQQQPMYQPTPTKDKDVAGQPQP
T2 sequence (P08195 1-529 partner): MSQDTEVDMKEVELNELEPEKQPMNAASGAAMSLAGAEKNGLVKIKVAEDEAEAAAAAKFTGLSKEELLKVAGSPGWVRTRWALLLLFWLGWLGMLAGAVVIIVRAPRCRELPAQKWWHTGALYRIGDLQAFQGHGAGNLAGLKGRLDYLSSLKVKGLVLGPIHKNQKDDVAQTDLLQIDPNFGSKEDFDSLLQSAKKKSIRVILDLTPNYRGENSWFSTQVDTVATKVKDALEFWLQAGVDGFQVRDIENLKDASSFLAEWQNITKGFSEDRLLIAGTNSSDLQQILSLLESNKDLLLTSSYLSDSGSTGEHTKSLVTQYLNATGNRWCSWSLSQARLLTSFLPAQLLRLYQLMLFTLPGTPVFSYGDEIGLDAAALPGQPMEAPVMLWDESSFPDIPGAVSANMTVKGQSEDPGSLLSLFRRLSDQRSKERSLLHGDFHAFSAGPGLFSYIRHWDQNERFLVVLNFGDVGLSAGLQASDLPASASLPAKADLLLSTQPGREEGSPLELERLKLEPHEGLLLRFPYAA
Source text: as §1, §2

[3] = target: T1, human LAT1; assay: Efflux of pre-loaded L-[14C]leucine from HEK293-hLAT1 cells induced by extracellular compounds; conditions: 1 min
Experimental: We evaluated the efflux of pre-loaded L-[^14C]leucine from LAT1 and pre-loaded L-[^14C]alanine from LAT2 induced by extracellularly applied compounds.
Efflux experiments were performed as described previously. Cells cultured 48 h were pre-loaded with 5 μM L-[^14C]leucine or L-[^14C]alanine for 10 min at 37 °C. The cells were then washed, and the efflux was induced by incubating cells for 1 min in either the absence or presence of non-radiolabeled test compounds at indicated concentrations. The efflux time of 1 min fell within the linear range of time-dependent substrate efflux mediated by LAT1 and LAT2 (Supplementary Fig. S2). Following incubation, the medium was collected and radioactivity was measured in both the medium and the cells. Efflux was quantified as the percentage of radioactivity released into the medium, calculated using the formula: radioactivity of medium/(radioactivity of medium + radioactivity of cells) × 100%.
The kinetic parameters for the efflux of L-[^14C]leucine or L-[^14C]alanine induced by various concentrations of extracellularly-applied test compounds were analyzed. The baseline efflux values—those obtained in the absence of test compounds—were subtracted from the values measured in the presence of the compounds. The resultant data were fitted to Michaelis–Menten kinetics to determine the Km and Vmax by nonlinear regression analysis using “enzyme kinetics-velocity as a function of substrate” module within GraphPad Prism software.

[4] = LAT1, L-[14C]leucine efflux, mean ± S.E.M., n = 3

T1 sequence (Q01650 whole entry, one chain of several): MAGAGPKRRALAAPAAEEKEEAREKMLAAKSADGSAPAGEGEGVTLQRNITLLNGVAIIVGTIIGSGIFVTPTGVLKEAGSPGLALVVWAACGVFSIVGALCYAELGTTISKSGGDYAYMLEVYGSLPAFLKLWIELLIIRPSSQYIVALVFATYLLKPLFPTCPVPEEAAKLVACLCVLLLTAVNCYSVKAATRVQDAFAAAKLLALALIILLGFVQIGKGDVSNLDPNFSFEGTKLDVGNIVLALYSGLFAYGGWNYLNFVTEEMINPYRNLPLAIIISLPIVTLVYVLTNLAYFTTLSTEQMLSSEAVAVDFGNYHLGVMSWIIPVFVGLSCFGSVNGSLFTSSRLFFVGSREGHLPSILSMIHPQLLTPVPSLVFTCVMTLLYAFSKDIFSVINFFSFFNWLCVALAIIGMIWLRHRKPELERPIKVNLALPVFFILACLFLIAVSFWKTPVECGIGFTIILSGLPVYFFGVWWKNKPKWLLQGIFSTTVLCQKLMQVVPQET

Inhibition of LAT1-mediated L-[14C]leucine uptake (in words, rank order) ([1]; 1 μM L-[14C]leucine, 1 min, compounds at 10, 30, 100 μM): inhibit
Ki ([1]; Ki for LAT1 calculated at 100 μM of compound, HEK293-hLAT1, inhibitor at 100 μM): 78.2 ± 13.9 µM
Ki ([1]; Ki for LAT1 calculated at 300 μM of compound, HEK293-hLAT1, inhibitor at 300 μM): 66.7 ± 7.08 µM
Mode of inhibition of LAT1 (Lineweaver–Burk plot) ([1]; L-[14C]leucine 50, 100, 200, 400 μM): competitive manner
Ki ([1]; HEK293-hLAT1, mean ± S.E.M., n = 3–4, read-out: Ki (μM) LAT1): 78.2 ± 13.9 µM
Ki ratio (LAT2/LAT1) ([1]; LAT1 selectivity, LAT2 Ki over LAT1 Ki): 47.98
Inhibition of LAT2-mediated L-[14C]alanine uptake (in words, rank order) ([2]; 1 μM L-[14C]alanine, 1 min, compounds at 10, 30, 100 μM): minimal inhibition
Ki ([2]; L-[14C]alanine uptake, HEK293-hLAT2, mean ± S.E.M., n = 3–4, read-out: Ki (μM) LAT2): 3750 ± 740 µM
Ki ([2]; as quoted in the discussion, read-out: Ki value for LAT2): ~3800 µM
Km [3, 4]: 27.3 ± 3.08 µM
Vmax of efflux (% radioactivity/min) [3, 4]: 15.43 ± 0.40 % radioactivity/min
LAT1-mediated L-[14C]leucine efflux induced (in words) ([3]; compounds at 10, 30, 100 μM): transported by LAT1 as substrates
SMILES: N[C@]1(C(=O)O)CCc2ccccc2C1 [bicyclic-Phe, (R)-2-amino-1,2,3,4-tetrahydro-2-naphthoic acid]
